Source: patent EP0011845A2, “Antiseborrhoeic hair treatment composition” (Henkel Kommanditgesellschaft auf Aktien, priority 1978, dated 1980)

System: Meerschweinchen
Assay: Anti-dandruff test: oleic-acid-induced scaling and skin thickening on shaved guinea pig back
Type: in vivo
Details: 5 % test substance with 5 % Ölsäure in 70 % ethanol, topical on the back, 60 min exposure, 4 consecutive days, evaluated on day 7, inhibition vs skin treated with oleic acid only; for Hautdickenmessung Hemmung %: skin fold thickness by Cutimeter nach Götze; for Hautschuppenmessung Hemmung %: visual scaling score on scale 0-4
Description: Die Prüfung auf Antischuppenwirkung wurde in folgender Weise durchgeführt, wobei B) als mit Natronlauge auf einen pH-Wert von 6 neutralisiertes Produkt zum Einsatz gelangte:
Die Prüfsubstanzen wurden in 5 %iger Konzentration zusammen mit 5 % Ölsäure in 70 %igem Ethanol gelöst und in alternierender Reihenfolge und in rotierendem Schema auf den Rücken junger, geschorener weiblicher Meerschweinchen im Gewicht von 600 ± 50 g aufgetragen. Die Einwirkungszeit der Substanzen wurde dabei auf 60 Minuten begrenzt, da diese Zeit ausreichte, um eine Wirkung zu erzielen. Anschließend wurden die Tiere mit warmem Wasser 30 Sekunden lang abgeduscht. Die Reihenfolge der Tiere bei der Applikation wechselte dabei täglich, um Differenzen in der Einwirkungszeit zwischen dem ersten und letzten Tier der Gruppe auf ein Minimum zu begrenzen. Diese Behandlung geschah an vier aufeinanderfolgenden Tagen, darauf folgte eine Ruhezeit (Entwicklungszeit von drei Tagen). Am siebenten Tag wurde ausgewertet, und zwar a) kutimetrisch auf Hautfaltendicke instrumentell mit dem Cutimeter nach Götze und b) visuell auf Schuppenbildung bzw. Hemmung nach einer 4-Punkte-Skala folgender Definition: • 0 = keine Schuppen • 1 = leichte Schuppen • 2 = kräftige Schuppen • 3 = starke Schuppen mit Rötung • 4 = Krusten mit Aufrichten der Haare.
Die Versuchsgruppen bestanden aus jeweils 6 Tieren. Die Kollektive wurden mathematisch auf Homogenität geprüft und nach Eliminierung signifikant abweichender Tiere wurden Mittelwert und Streuung für jede Substanz berechnet. Diese wurden in Beziehung gesetzt zu den Werten der nur mit 5 % Ölsäure in 70 %igem Ethanol behandelten Haut und daraus die Signifikanz der Hemmwirkung bestimmt. Das Ergebnis der Prüfung ist der nachstehenden Tabelle 1 zu entnehmen.

Row | Compound | Hautdickenmessung Hemmung % [%] | Hautschuppenmessung Hemmung % [%]
1 | CCOC(=O)CCCCCNC(=O)c1cc(OC)c(OC)c(OC)c1 [Wirkstoff A, N-(3,4,5-Trimethoxy-benzoyl)-6-amino-capronsäure-ethylester] | 15 | 100
2 | COc1cc(C(=O)NCCCCCC(=O)O)cc(OC)c1OC [Wirkstoff B, N-(3,4,5-Trimethoxy-benzoyl)-6-amino-carbonsäure] | 10 | 50
